Assay [1] concerns the target T1, Protein arginine N-methyltransferase 1 (Homo sapiens, UniProt Q99873). Briefly: Inhibition of recombinant full-length N-terminal His6-tagged PRMT1 (unknown origin) using AcH4-21 peptide substrate preincubated for 10 mins followed by substrate/14C-methyl-SAM addition and measured after 15 mins by phosphorimaging analysis based radioisotopic assay.
Target sequence in this assay (Q99873 whole entry): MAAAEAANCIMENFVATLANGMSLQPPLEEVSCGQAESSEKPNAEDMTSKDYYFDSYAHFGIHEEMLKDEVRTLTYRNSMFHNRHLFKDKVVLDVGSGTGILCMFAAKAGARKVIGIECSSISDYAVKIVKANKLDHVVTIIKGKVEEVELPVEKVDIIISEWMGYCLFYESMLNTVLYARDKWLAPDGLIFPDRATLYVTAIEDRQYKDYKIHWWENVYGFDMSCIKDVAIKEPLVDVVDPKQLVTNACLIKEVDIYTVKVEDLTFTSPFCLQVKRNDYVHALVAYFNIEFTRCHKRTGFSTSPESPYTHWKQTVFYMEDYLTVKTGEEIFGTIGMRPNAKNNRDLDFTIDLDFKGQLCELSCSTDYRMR
Assay [2] addresses T2, Protein arginine N-methyltransferase 5 (Homo sapiens, UniProt O14744). Briefly: Inhibition of recombinant full-length N-terminal His6-tagged PRMT5 (unknown origin) using AcH4-21 peptide substrate preincubated for 10 mins followed by substrate/14C-methyl-SAM addition and measured after 15 mins by phosphorimaging analysis based radioisotopic assay.
Assay [3] deals with T1, Protein arginine N-methyltransferase 1. Briefly: Binding affinity to recombinant full-length N-terminal His6-tagged PRMT1 (unknown origin) assessed as biotin labelling of PRMT1 at >25 uM using biotin azide incubated for 30 mins by Western blot analysis.
Target sequence in this assay (Q99873 whole entry, looked up): as the sequence (Q99873 whole entry) above
The target of assay [4] is T2, Protein arginine N-methyltransferase 5. The experiment in a line: Binding affinity to recombinant full-length N-terminal His6-tagged PRMT5 (unknown origin) assessed as biotin labelling of PRMT5 at 50 uM using biotin azide incubated for 30 mins by Western blot analysis.
The species named for assay [5] is Homo sapiens. The experiment in a line: Selectivity index, ratio of binding affinity to recombinant full-length N-terminal His6-tagged PRMT5 (unknown origin) assessed as biotin labelling of PRMT5 at 25 uM to binding affinity to recombinant full-length N-terminal His6-tagged PRMT1 (unknown origin) assessed as biotin labelling of PRMT1 at 25 uM.
Assay [6] addresses T1, Protein arginine N-methyltransferase 1. Briefly: Binding affinity to recombinant full-length N-terminal His6-tagged PRMT1 (unknown origin) assessed as biotin labelling of PRMT1 at 1 uM using biotin azide and in presence of SAM incubated for 30 mins by Western blot analysis. For orientation: In western blotting, separated proteins are transferred to a membrane and probed.
Target sequence in this assay (Q99873 whole entry, looked up): as the sequence (Q99873 whole entry) above
For assay [7] the target is unchanged. Briefly: Binding affinity to recombinant full-length N-terminal His6-tagged PRMT1 (unknown origin) assessed as biotin labelling of PRMT1 at 1 uM using biotin azide and in absence of SAM incubated for 30 mins by Western blot analysis.
Target sequence in this assay (Q99873 whole entry, looked up): as the sequence (Q99873 whole entry) above
Assay [8] shares this target. Briefly: Binding affinity to recombinant full-length N-terminal His6-tagged PRMT1 (unknown origin) assessed as time needed for maximum biotin labelling of PRMT1 at 10 uM using biotin azide and in presence of SAM incubated for 30 mins by Western blot analysis.
Target sequence in this assay (Q99873 whole entry, looked up): as the sequence (Q99873 whole entry) above
For assay [9] the target is unchanged. Briefly: Binding affinity to recombinant full-length N-terminal His6-tagged PRMT1 (unknown origin) assessed as lowest drug level for biotin labelling of PRMT1 using biotin azide and in presence of SAM incubated for 30 mins by Western blot analysis.
Target sequence in this assay (Q99873 whole entry, looked up): as the sequence (Q99873 whole entry) above
The species named for assay [10] is Homo sapiens. The experiment in a line: Binding affinity to PRMT1 C101A mutant (unknown origin) assessed as biotin labelling of PRMT1 at <25 uM using biotin azide and in presence of SAM incubated for 30 mins by Western blot analysis.
For assay [11], the species on record is Homo sapiens. Briefly: Binding affinity to PRMT1 C101A mutant (unknown origin) assessed as biotin labelling of PRMT1 at >25 uM using biotin azide and in presence of SAM incubated for 30 mins by Western blot analysis.
The species named for assay [12] is Homo sapiens. Briefly: Binding affinity to PRMT1 C101A mutant (unknown origin) assessed as optimum drug level for biotin labelling of PRMT1 using biotin azide and in presence of SAM incubated for 30 mins by Western blot analysis.
The target of assay [13] is T1, Protein arginine N-methyltransferase 1. The experiment in a line: Binding affinity to recombinant full-length N-terminal His6-tagged PRMT1 (unknown origin) assessed as biotin labelling of PRMT1 at 10 uM in presence of recombinant full-length N-terminal His6-tagged PRMT5 (unknown origin) using biotin azide and in presence of SAM incubated for 30 mins at 25 degC by Western blot analysis.
Target sequence in this assay (Q99873 whole entry, looked up): as the sequence (Q99873 whole entry) above

The target is the same in assay [14]. The experiment in a line: Binding affinity to recombinant full-length N-terminal His6-tagged PRMT1 (unknown origin) assessed as biotin labelling of PRMT1 at 10 uM in presence of recombinant full-length N-terminal His6-tagged PRMT5 (unknown origin) using biotin azide and in presence of SAM incubated for 30 mins at 37 degC by Western blot analysis.

Calls of active or inactive are those of the source. The rule behind the calls is not given here. Starred links: 1 amine or outer side, 2 acyl side, 3 side chain; linkers in the order of their positions; H or OH if unused. Non-standard residues stand in square brackets, D forms with d. Residues, ends and D or L forms follow the SMILES beside them. *: point of attachment. X1 = N=C(CCl)NCCCC(N[*:1])C(=O)[*:2]; Butanoyl(4-ethynyl) = C#CCCCC(=O)*

T2 sequence (O14744 whole entry): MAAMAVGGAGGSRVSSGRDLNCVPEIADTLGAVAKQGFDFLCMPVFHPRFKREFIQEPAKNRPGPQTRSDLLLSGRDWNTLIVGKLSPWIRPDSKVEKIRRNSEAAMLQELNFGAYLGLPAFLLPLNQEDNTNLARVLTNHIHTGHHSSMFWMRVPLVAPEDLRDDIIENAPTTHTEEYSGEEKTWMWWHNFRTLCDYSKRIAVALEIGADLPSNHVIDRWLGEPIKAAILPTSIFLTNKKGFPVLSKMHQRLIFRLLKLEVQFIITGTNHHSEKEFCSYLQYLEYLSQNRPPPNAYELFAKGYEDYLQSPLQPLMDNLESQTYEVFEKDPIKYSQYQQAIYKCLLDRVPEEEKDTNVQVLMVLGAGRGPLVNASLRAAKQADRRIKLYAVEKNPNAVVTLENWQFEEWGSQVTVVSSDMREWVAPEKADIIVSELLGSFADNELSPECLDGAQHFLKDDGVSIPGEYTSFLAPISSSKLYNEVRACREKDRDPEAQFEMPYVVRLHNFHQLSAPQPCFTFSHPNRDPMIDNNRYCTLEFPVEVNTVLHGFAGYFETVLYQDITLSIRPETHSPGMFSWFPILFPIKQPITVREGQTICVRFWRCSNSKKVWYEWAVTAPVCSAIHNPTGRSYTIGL

By IC50 is commonly meant the concentration that gives 50% inhibition. Take `C#CCCCC(=O)N[C@@H](Cc1cnc[nH]1)C(=O)N[C@@H](CCCCN)C(=O)N[C@@H](Cc1cnc[nH]1)C(=O)N[C@@H](C)C(=O)NC(CCCNC(=N)CCl)C(=O)NCC(=O)NCC(=O)N[C@@H](CCCCN)C(=O)NCC(=O)N[C@@H](CC(C)C)C(=O)NCC(=O)N[C@@H](CCCCN)C(=O)NCC(=O)NCC(=O)N[C@@H](C)C(=O)N[C@@H](CCCCN)C(=O)O` (some centres undefined) ({Butanoyl(4-ethynyl)}-HKHA[X1]GGKGLGKGGAK-OH): the figures for the IC50 in [1] and in [2] were 20 µM and greater than 500 µM, respectively. The outcome (in assay [3]; in assay [6]; in assay [7]; in the assay filed under Homo sapiens [11]; in assay [13]; in assay [14]) was Active. Also, the result (in assay [4]; in the assay listed under Homo sapiens [10]) was inactive. For the same molecule, the Ratio in the assay listed under Homo sapiens [5] stood at 8. Also, in assay [8], the TIME was found to be 0.5 h. The Activity was 0.25 µM in [9] and 10 µM in the assay listed under Homo sapiens [12].
